Laboratory results: patent publication US9932341B2, “Use of pyrazolopyrimidine derivatives for the treatment of PI3K-delta related disorders” (Incyte Corporation, priority 2013, dated 2018)

Tests used:
[1] = system: Pfeiffer human tumor xenograft model of diffuse large B-cell lymphoma; test: Pfeiffer Model of Lymphoma (Example D); assay type: in vivo; details: SCID mice
Procedure: Female SCID mice, (5 to 8 weeks of age, Charles River Laboratories, Wilmington, Mass.) were inoculated with 1×10^7 tumor cells (Pfeiffer, ATCC #CRL-2632, Manassas, Va.) and matrigel (BD Biosciences #354234) in 0.2 mL sterile saline. The inoculation was performed subcutaneously on the flank. Tumor tissue fragments (approximately 3 mm×3 mm) were collected 3 to 6 weeks after the inoculation of cultured cells and implanted subcutaneously in lieu of cellular inoculation. Tissue fragments were implanted as solid pieces using blunt-tip forceps. The treatment of tumor bearing mice was started 15 to 25 days after tumor inoculation, depending upon the tumor size. Animals were sorted to obtain roughly equivalent mean tumor volumes in each group. Minimum mean tumor volume in all groups was 150 mm3 on the first day of treatment and groups consisted of 7 animals. Experimental therapeutic agent, Example 347, was administered to mice orally (PO). Treatment frequency was 2 times daily for a minimum of 14 days for efficacy. The size of subcutaneous tumors was measured 2 to 3 times weekly using a digital caliper. The tumor volume was calculated by measuring the tumor in 2 dimensions and utilizing the equation: Volume=[Length×(Width2)]/2; where the larger number was length, and the smaller number width. If multiple tumors were formed, the final volume was the sum of the individual tumors subject to the same equation: eg, 2 tumors; Volume={[L1×(W1)2]/2}+{[L2×(W2)2]/2}. Effects on tumor growth were reported as percent tumor growth inhibition (% TGI). Percent TGI was calculated with the equation: (1−(Tx vol./control vol.))*100, where control volume was the vehicle or untreated tumor volume on a given day, and Tx volume was any treatment group tumor volume on that same day. Statistical differences between treatment and vehicle controls were assessed using ANOVA: Single Factor test.

[2] = system: Pfeiffer cell line (diffuse large B cell lymphoma); test: Pfeiffer Cell Proliferation Assay (Example B2); assay type: cell-based, human
Procedure: Pfeiffer cell line (diffuse large B cell lymphoma) are purchased from ATCC (Manassas, Va.) and maintained in the culture medium recommended (RPMI and 10% FBS). To measure the anti-proliferation activity of the compounds, the Pfeiffer cells are plated with the culture medium (2×10^3 cells well per […]) into 96-well ultra-low binding plates (Corning, Corning, N.Y.), in the presence or absence of a concentration range of test compounds. After 3-4 days, [^3H]-thymidine (1 μCi/well) (PerkinElmer, Boston, Mass.) in PBS is then added to the cell culture for an additional 12 hours before the incorporated radioactivity is separated by filtration with water through GF/B filters (Packard Bioscience, Meriden, Conn.) and measured by liquid scintillation counting with a TopCount (Packard Bioscience).

PI3Kδ (p110δ/p85α) = PI3Kδ (p110δ/p85α) (Homo sapiens (Human), UniProt O00329); test: PI3Kδ Scintillation Proximity Assay (Example A3); assay type: biochemical; details: 20 μM ATP, 20 μM PIP2, 4 nM PI3Kδ, read-out: PI3Kδ SPA IC50
Chain of PI3Kδ (p110δ/p85α) (O00329 whole entry): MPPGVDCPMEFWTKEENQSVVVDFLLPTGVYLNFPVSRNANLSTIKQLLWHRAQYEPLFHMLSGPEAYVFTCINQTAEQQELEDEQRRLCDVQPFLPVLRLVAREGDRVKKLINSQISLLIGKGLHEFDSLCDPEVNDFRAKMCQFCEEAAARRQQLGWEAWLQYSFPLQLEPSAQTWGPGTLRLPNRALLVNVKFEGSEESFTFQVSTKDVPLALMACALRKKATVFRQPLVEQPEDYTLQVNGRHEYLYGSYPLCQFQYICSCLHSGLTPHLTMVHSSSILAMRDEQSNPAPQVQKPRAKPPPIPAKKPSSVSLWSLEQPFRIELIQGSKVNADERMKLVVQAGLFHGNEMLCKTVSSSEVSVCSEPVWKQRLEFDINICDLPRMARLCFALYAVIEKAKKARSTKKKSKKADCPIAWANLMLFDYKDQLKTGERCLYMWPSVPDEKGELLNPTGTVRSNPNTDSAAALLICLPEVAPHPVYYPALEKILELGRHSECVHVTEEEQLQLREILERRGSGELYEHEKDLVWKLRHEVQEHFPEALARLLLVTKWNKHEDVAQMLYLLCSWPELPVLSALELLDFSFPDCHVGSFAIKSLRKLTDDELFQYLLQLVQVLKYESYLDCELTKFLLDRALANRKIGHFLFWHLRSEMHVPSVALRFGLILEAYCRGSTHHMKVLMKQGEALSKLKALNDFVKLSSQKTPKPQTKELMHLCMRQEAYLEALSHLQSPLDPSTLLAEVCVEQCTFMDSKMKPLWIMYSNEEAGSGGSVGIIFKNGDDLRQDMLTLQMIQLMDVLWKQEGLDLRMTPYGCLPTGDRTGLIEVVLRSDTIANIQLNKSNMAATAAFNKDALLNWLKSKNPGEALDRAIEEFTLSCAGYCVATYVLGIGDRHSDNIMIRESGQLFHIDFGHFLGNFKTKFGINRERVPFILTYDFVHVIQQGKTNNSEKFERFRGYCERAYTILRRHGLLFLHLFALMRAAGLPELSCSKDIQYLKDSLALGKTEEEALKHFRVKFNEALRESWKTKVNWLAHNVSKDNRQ
Chain of PI3Kδ (p110δ/p85α) (P27986 whole entry partner): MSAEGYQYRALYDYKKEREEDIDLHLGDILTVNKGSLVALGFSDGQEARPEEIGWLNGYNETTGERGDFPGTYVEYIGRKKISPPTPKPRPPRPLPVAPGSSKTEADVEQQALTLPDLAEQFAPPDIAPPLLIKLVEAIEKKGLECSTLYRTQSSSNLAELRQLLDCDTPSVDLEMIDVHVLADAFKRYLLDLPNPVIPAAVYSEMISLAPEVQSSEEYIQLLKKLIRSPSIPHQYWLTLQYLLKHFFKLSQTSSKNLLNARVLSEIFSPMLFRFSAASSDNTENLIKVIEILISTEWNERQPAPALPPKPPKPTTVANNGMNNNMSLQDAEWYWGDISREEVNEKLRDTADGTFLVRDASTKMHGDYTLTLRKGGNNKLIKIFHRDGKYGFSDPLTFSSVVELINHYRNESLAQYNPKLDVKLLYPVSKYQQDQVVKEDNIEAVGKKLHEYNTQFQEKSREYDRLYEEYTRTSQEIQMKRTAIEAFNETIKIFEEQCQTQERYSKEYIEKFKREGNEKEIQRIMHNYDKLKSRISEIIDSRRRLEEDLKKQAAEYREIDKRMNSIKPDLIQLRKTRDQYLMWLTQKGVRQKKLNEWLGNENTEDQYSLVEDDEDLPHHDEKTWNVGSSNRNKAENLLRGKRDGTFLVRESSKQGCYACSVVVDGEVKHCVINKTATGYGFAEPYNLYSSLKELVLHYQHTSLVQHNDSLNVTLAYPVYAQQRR
Summary of the method: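 SPA with 4 nM p110δ/p85α, 20 μM PIP2, 20 μM ATP plus [γ-^33P]ATP, in 20 mM MOPS pH 6.7, 10 mM MgCl2, 5 mM DTT, 0.03% CHAPS, 0.5% DMSO, room temperature. Stopped with EDTA/ATP, WGA SPA beads, overnight shaking, scintillation counting. IC50 from % control activity vs log concentration.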

PI3Kδ = PI3Kδ (Homo sapiens (Human), UniProt O00329); test: PI3K Enzyme Assay (Example A2, [γ-33P]ATP filter plate); assay type: biochemical; details: 1000 μM ATP, 50 μM PIP2
Chain of PI3Kδ (O00329 whole entry, canonical isoform): as the sequence (O00329 whole entry) above
Chain of PI3Kδ (P27986 whole entry partner, canonical isoform): as the sequence (P27986 whole entry partner) above
Procedure: PI3K isoforms α, β, δ and γ are purchased from Millipore (Bedford, Mass.).
Inhibitors are first diluted serially in DMSO and added to the plate wells before the addition of other reaction components. The final concentration of DMSO in the assay is 0.5%. The PI3K assays are carried out at room temperature in 20 mM MOPS, pH 6.7, 10 mM MgCl2, 5 mM DTT and CHAPS 0.03%. The reaction mixture is prepared containing 50 μM PIP2, kinase and varying concentration of inhibitors. Reactions are initiated by the addition of ATP containing 2.2 μCi [γ-^33P]ATP to a final concentration of 1000 μM. […] After drying by aspiration and blotting, the plate is air dried in an incubator at 37° C. overnight. Packard TopCount adapter (Millipore) is then attached to the plate followed with addition of 120 μL Microscint 20 scintillation cocktail (Perkin Elmer) in each well. […] IC50 determination is performed by fitting the curve of percent control activity versus the log of the inhibitor concentration using the GraphPad Prism 3.0 software.

CCOc1c(C(C)n2nc(C)c3c(N)ncnc32)cc(Cl)c(F)c1C1CNC(=O)C1 (single isomer, unassigned) [Example 347, 4-{3-[1-(4-amino-3-methyl-1H-pyrazolo[3,4-d]pyrimidin-1-yl)ethyl]-5-chloro-2-ethoxy-6-fluorophenyl}pyrrolidin-2-one]
percent tumor growth inhibition ([1]; 0.3 mg/kg oral twice daily for 14 days): 22%
percent tumor growth inhibition ([1]; 1 mg/kg oral twice daily for 14 days): 24%
percent tumor growth inhibition ([1]; 3 mg/kg oral twice daily for 14 days): 36%
percent tumor growth inhibition ([1]; 10 mg/kg oral twice daily for 14 days): 58%
anti-proliferative effects in vitro on Pfeiffer cancer cells [2]: sensitive

COc1c(C(C)n2nc(C)c3c(N)ncnc32)cc(Cl)c(C#N)c1C1CN(C[C@H](C)O)C1 (stereo partly drawn) [Example 269, 4-[1-(4-Amino-3-methyl-1H-pyrazolo[3,4-d]pyrimidin-1-yl)ethyl]-6-chloro-2-{1-[(2S)-2-hydroxypropyl]azetidin-3-yl}-3-methoxybenzo nitrile]
IC50 (PI3Kδ (p110δ/p85α)): < 0.01 µM

COc1c(C(C)n2nc(C)c3c(N)ncnc32)cc(Cl)c(C#N)c1C1CN(C(C)CO)C1 (centres unmarked) [Example 272, 4-[1-(4-amino-3-methyl-1H-pyrazolo[3,4-d]pyrimidin-1-yl)ethyl]-6-chloro-2-[1-(2-hydroxy-1-methylethyl)azetidin-3-yl]-3-methoxybenzonitrile]
IC50 (PI3Kδ (p110δ/p85α)): < 0.01 µM

CCOc1c(C(C)n2nc(C)c3c(N)ncnc32)cc(Cl)c(C)c1C1CNC(=O)C1 (centres unmarked) [Example 310, 4-{3-[1-(4-amino-3-methyl-1H-pyrazolo[3,4-d]pyrimidin-1-yl)ethyl]-5-chloro-2-ethoxy-6-methylphenyl}pyrrolidin-2-one]
IC50 (PI3Kδ (p110δ/p85α)): < 0.01 µM

COc1c(C(C)n2nc(C)c3c(N)ncnc32)cc(Cl)c(C)c1C1CNC(=O)O1 (centres unmarked) [Example 325, 5-{3-[1-(4-Amino-3-methyl-1H-pyrazolo[3,4-d]pyrimidin-1-yl)ethyl]-5-chloro-2-methoxy-6-methylphenyl}-1,3-oxazolidin-2-one]
IC50 (PI3Kδ (p110δ/p85α)): < 0.01 µM

COc1c([C@@H](C)n2nc(C)c3c(N)ncnc32)cc(Cl)c(C#N)c1C1CN(C[C@H](C)O)C1 [Example 361, 4-((R)-1-(4-amino-3-methyl-1H-pyrazolo[3,4-d]pyrimidin-1-yl)ethyl)-6-chloro-2-(1-((S)-2-hydroxypropyl)azetidin-3-yl)-3-methoxybenzonitrile]
IC50 (PI3Kδ): > 0.5 µM

COc1c([C@H](C)n2nc(C)c3c(N)ncnc32)cc(Cl)c(C#N)c1C1CN(C[C@@H](C)O)C1 [Example 362]
IC50 (PI3Kδ (p110δ/p85α)): < 0.01 µM
